Several values for one entry are separate records, joined by “and”; a condition that tells them apart may be missing. Equal entries are not always repeated. Entries after “also recorded” stand apart in the source; their conditions may differ. Where two headings read alike, the source gives them in different places.
Legend:
[1] = Small-animal PET, excretion pattern; format: in vivo, mouse; settings: PET 0–2, 4–5 and 24–25 h p.i., i.v.
Description: Time points of PET imaging were 0–2, 4–5, and 24–25 h post injection (p.i.).

PD-L1 = biological target: T1, PD-L1 (Homo sapiens, UniProt Q9NZQ7); test: Saturation binding assay on live PC3 PD-L1 overexpressing cells
T1 construct: expressed in transfected cells; host or cells: PC3 cells (human prostate carcinoma), stably transduced
Description: For assessing the binding affinity of compounds [^64Cu]Cu-1–6, PC3 cells transduced with PD-L1 were used. Dissociation constants in equilibrium (KD) and maximum number of binding sites (Bmax) were determined in a saturation binding assay. The assays were performed with the addition of 2.5% bovine serum albumin (BSA) in the medium to prevent unspecific binding to plastic wells, as reported previously for our first radioligands.[1]
For saturation binding, cells were trypsinized (0.05% Trypsin–EDTA, Gibco, USA), counted, and diluted to ∼160,000 cells/mL. 0.25 mL of the cell solution was then added to each well of a 48-well plate (Falcon Multiwell #353078) and grown for at least 2 days.
To determine the affinity (KD) and the number of binding sites (Bmax) of the herein described PD-L1 small-molecule ligands, saturation binding was performed in at least three independent experiments, as described before.[45] Cells were brought to room temperature followed by cooling on ice (each 15 min). The medium was removed and replaced with 200 μL assay buffer [PBS + 2.5% (w/v) BSA] for total binding (TB) conditions or assay buffer containing 300 μM BMS-1166 (in DMSO, resulting in 0.03% v/v) for the assessment NSB. After 15 min preincubation, 200 μL of each of the eight serial 1:1 dilutions (500 to 3.91 nM) of the respective radioligand was added (in triplicate). Cells were then incubated for 90 min at 4 °C, washed (3 × 1 min), and lysed in 500 μL of 0.1 M NaOH + 1% SDS. Radioactivity of the lysate was measured and decay corrected to a reference time (end of radiolabeling). An additional plate was subjected to the same conditions (preincubation, incubation, and washing) using PBS without BSA for each experiment, and the protein content of these lysates was determined by BCA assay. From CPM measurements, final values (pmol/mg protein) were calculated using the mean protein content and molar activity.
Processed data were then subjected to nonlinear iterative curve fitting (GraphPad Prism 9) to yield Bmax (in pmol/mg protein) and KD (in nM).

[2] = Metabolite analysis in vivo; set-up: species or system mouse; settings: 4 h postinjection
[3] = Kinetic stability in PBS buffer (pH 7.4), radio-HPLC; format: physicochemical; settings: room temperature; for intact radioligand in PBS (pH 7.4): radio-HPLC at 1, 24 and 48 h
Description: The kinetic stability of all ^64Cu-labeled ligands was investigated in PBS buffer solution (pH 7.4) by incubation at room temperature and monitoring with radio-HPLC up to 48 h. […] During the time course, no changes in peak number/shape and retention time were observed, proving the stability of the compounds. […] At the 48 h time point, however, a shoulder appears with a slightly higher retention time (∼7.0 min), indicating minor decomposition (>94% intact radiotracer).
The corresponding radiotracer was labeled with approximately 500 MBq of ^64Cu in 50 μL of HEPES solution (adjusted to pH 4.5), as described above. After successful labeling, 450 μL of PBS solution (pH 7.4) was added, and the incubation was performed (room temperature) at 300 rpm. At each time point (1, 24, and 48 h), an aliquot was withdrawn and injected into the radio-HPLC (PerkinElmer, Massachusetts, United States system C or D, Supporting Information). Evaluation and graphical plotting were performed with OriginPro 9.0.

[4] = log D7.4 shake flask method, n-octanol/PBS; format: physicochemical; settings: n-octanol/PBS pH 7.4, shake flask; mean ± SD, three experiments
Description: For assessing the lipophilicity of the ^64Cu-labeled PD-L1 radioligands, distribution coefficients (log D7.4 values) were determined using the shake flask method between n-octanol and PBS buffer (pH 7.4).
n-Octanol/water distribution coefficients were determined by the shake-flask method. The experiments for each radioligand was performed in triplicate. 30 μL of the reaction mixture was added to a 1.5 mL Eppendorf tube, which contained 570 μL of PBS (pH 7.4) and 600 μL n-octanol. After shaking at room temperature at 1500 rpm for 5 min, the mixture was centrifugated. An aliquot for each phase was carefully withdrawn, and the count rates were measured using a γ-counter (ISOMED2160 sodium iodide crystal detector). The mean values were calculated, corrected for the background activity, and the log D7.4 value was calculated with following formula [drawing 1]

[5] = saturation binding, live PC3 PD-L1 overexpressing cells, 2.5% BSA, 90 min at 4 °C, mean ± SD, at least three experiments, read-out: KD
[6] = saturation binding, live PC3 PD-L1 overexpressing cells, 2.5% BSA, mean ± SD
[7] = supplementary CSV, read-out: KD [nM], saturation binding assay

T1 sequence (Q9NZQ7 19-290): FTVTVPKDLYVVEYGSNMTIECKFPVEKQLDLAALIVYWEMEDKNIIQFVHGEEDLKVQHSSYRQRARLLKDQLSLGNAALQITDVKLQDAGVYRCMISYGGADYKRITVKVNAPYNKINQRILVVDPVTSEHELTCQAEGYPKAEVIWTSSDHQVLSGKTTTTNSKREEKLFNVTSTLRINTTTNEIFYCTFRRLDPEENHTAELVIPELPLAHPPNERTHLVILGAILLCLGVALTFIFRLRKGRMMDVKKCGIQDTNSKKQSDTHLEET

SMILES | excretion / clearance pattern (PET) [1] | Kd (PD-L1; [5]) | Bmax (maximum number of binding sites) (PD-L1; [6]) | stability in circulation (metabolite analysis) [2] | intact radioligand in PBS (pH 7.4) [3] | Kd (PD-L1; [7]) | log D7.4 [4] | intact radiotracer in PBS (pH 7.4) at 48 h ([3]; 48 h)
Cc1c(COc2cc(OCc3cncc(C#N)c3)c(CN[C@@H](CS(=O)(=O)O)C(=O)NCCS(=O)(=O)O)cc2Cl)cccc1-c1cccc(OCc2cn(CCCN3CCN(C(=O)[C@H](CS(=O)(=O)O)NC(=O)CC[C@H](C(=O)O)N4CCN(CC(=O)O)CCN(CC(=O)O)CC4)CC3)nn2)c1C.[64Cu+2] [[^64Cu]Cu-1] | mixed hepatobiliary and renal clearance | 80.5 ± 5.02 nM | 7.05 pmol·mg^–1 and 7.05 ± 0.99 pmol·mg^–1 | – | – | – | – | –
Cc1c(COc2cc(OCc3cncc(S(C)(=O)=O)c3)c(CN[C@@H](CS(=O)(=O)O)C(=O)NCCS(=O)(=O)O)cc2Cl)cccc1-c1cccc(OCc2cn(CCCN3CCN(C(=O)[C@H](CS(=O)(=O)O)NC(=O)CC[C@H](C(=O)O)N4CCN(CC(=O)O)CCN(CC(=O)O)CC4)CC3)nn2)c1C.[64Cu+2] [[^64Cu]Cu-3] | predominantly a fast renal and lower hepatobiliary clearance | 93.7 ± 10.8 nM | 8.51 ± 0.48 pmol·mg^–1 | overall stability of the compound in circulation | > 99% | – | – | –
Cc1c(COc2cc(OCc3cncc(S(C)(=O)=O)c3)c(CN[C@@H](CS(=O)(=O)O)C(=O)NCCP(=O)(O)O)cc2Cl)cccc1-c1cccc(OCc2cn(CCCN3CCN(C(=O)[C@H](CS(=O)(=O)O)NC(=O)CC[C@H](C(=O)O)N4CCN(CC(=O)O)CCN(CC(=O)O)CC4)CC3)nn2)c1C.[64Cu+2] [[^64Cu]Cu-5] | – | 112 ± 11 nM | 19.1 pmol·mg^–1 and 19.1 ± 0.67 pmol·mg^–1 | – | > 99% | 82.4 nM | – | –
Cc1c(COc2cc(OCc3cncc(S(C)(=O)=O)c3)c(CN[C@@H](CS(=O)(=O)O)C(=O)NCCP(=O)(O)O)cc2Cl)cccc1-c1cccc(OCc2cn(CCCN3CCN(C(=O)CC[C@H](C(=O)O)N4CCN(CC(=O)O)CCN(CC(=O)O)CC4)CC3)nn2)c1C.[64Cu+2] [[^64Cu]Cu-4] | almost exclusive hepatobiliary elimination; also recorded: primarily hepatobiliary clearance | 82.4 ± 7.42 nM | 10.7 pmol·mg^–1 and 10.7 ± 1.34 pmol·mg^–1 | – | > 99% | 112 nM | –3.07 ± 0.02 | –
Cc1c(COc2cc(OCc3cncc(S(C)(=O)=O)c3)c(CN[C@@H](CS(=O)(=O)O)C(=O)NCCP(=O)(O)O)cc2Cl)cccc1-c1cccc(OCc2cn(CCCN3CCN(C(=O)[C@H](CP(=O)(O)O)NC(=O)CC[C@H](C(=O)O)N4CCN(CC(=O)O)CCN(CC(=O)O)CC4)CC3)nn2)c1C.[64Cu+2] [[^64Cu]Cu-6] | – | 532 nM and 533 nM | 10.3 ± 0.74 pmol·mg^–1 | – | > 99% | – | –4.28 ± 0.08 | > 94%

— article PMC10726354, “Design, Synthesis, and Biological Evaluation of Small-Molecule-Based Radioligands with Improved Pharmacokinetic Properties for Imaging of Programmed Death Ligand 1” (Journal of Medicinal Chemistry, 2023)
